Assay results taken from ChEMBL document CHEMBL4229385, “Study of the structure-activity relationship of polymyxin analogues” (2018).
Converted amounts (≈) assume the structure as drawn. Where a SMILES comes first, the peptide text is derived from it. Bridges are numbered along the chain shown (N, C = ends). [ ]: non-standard residue; d: D form. The star is where a group is joined. Benzoyl(4-Ph) = O=C(c1ccc(-c2ccccc2)cc1)*; Bip = N[C@@H](Cc1ccc(-c2ccccc2)cc1)C(=O)O; Octanoyl = CCCCCCCC(=O)*; Dab = NCC[C@H](N)C(=O)O

Assays:
Type in all cases: functional
[1] = test system: Pseudomonas aeruginosa; experiment: Antibacterial activity against multidrug-resistant Pseudomonas aeruginosa KUB2705 by agar dilution method
[2] = test system: Pseudomonas aeruginosa; experiment: Antibacterial activity against amikacin/ciprofloxacin-resistant Pseudomonas aeruginosa KUB2704 by agar dilution method
[3] = test system: Pseudomonas aeruginosa; experiment: Antibacterial activity against amikacin/imipenem-resistant Pseudomonas aeruginosa KUB2703 by agar dilution method
[4] = test system: Pseudomonas aeruginosa; experiment: Antibacterial activity against Pseudomonas aeruginosa E-2 by agar dilution method
[5] = test system: Pseudomonas aeruginosa; experiment: Antibacterial activity against Pseudomonas aeruginosa PAO1 by agar dilution method

Molecule	MIC [1]	MIC [2]	MIC [3]	MIC [4]	MIC [5]
C[C@@H](O)[C@@H]1NC(=O)[C@H](CCN)NC(=O)[C@H](CCN)NC(=O)[C@H](Cc2ccc(-c3ccccc3)cc2)NC(=O)[C@@H](Cc2ccccc2)NC(=O)[C@H](CCN)NC(=O)[C@@H](NC(=O)[C@H](CCN)NC(=O)[C@@H](NC(=O)[C@H](CCN)NC(=O)c2cccc(-c3ccccc3)c2)[C@@H](C)O)CCNC1=O	16 µg/mL (≈ 11.8 µM)	> 16 µg/mL	> 16 µg/mL	> 16 µg/mL	16 µg/mL (≈ 11.8 µM)
CCCCCCCC(=O)N[C@@H](CCN)C(=O)N[C@H](C(=O)N[C@@H](CCN)C(=O)N[C@H]1CCNC(=O)[C@H]([C@@H](C)O)NC(=O)[C@H](CCN(C)C)NC(=O)[C@H](CCN)NC(=O)[C@H](CC(C)C)NC(=O)[C@@H](CC(C)C)NC(=O)[C@H](CCN)NC1=O)[C@@H](C)O	16 µg/mL (≈ 13.5 µM)	> 16 µg/mL	> 16 µg/mL	> 16 µg/mL	> 16 µg/mL
C[C@@H](O)[C@@H]1NC(=O)[C@H](CCN)NC(=O)[C@H](CCN)NC(=O)[C@H](Cc2ccccc2)NC(=O)[C@@H](Cc2ccc(-c3ccccc3)cc2)NC(=O)[C@H](CCN)NC(=O)[C@@H](NC(=O)[C@H](CCN)NC(=O)[C@@H](NC(=O)[C@H](CCN)NC(=O)c2ccc(-c3ccccc3)cc2)[C@@H](C)O)CCNC1=O	16 µg/mL (≈ 11.8 µM)	16 µg/mL (≈ 11.8 µM)	16 µg/mL (≈ 11.8 µM)	16 µg/mL (≈ 11.8 µM)	16 µg/mL (≈ 11.8 µM)
C[C@@H](O)[C@@H]1NC(=O)[C@H](CCN)NC(=O)[C@H](CCN)NC(=O)[C@H](Cc2ccccc2)NC(=O)[C@@H](Cc2ccc(-c3ccccc3)cc2)NC(=O)[C@H](CCN)NC(=O)[C@@H](NC(=O)[C@H](CCN)NC(=O)[C@@H](NC(=O)[C@H](CCN)NC(=O)c2cccc(-c3ccccc3)c2)[C@@H](C)O)CCNC1=O	16 µg/mL (≈ 11.8 µM)	16 µg/mL (≈ 11.8 µM)	16 µg/mL (≈ 11.8 µM)	> 16 µg/mL	16 µg/mL (≈ 11.8 µM)
C[C@@H](O)[C@@H]1NC(=O)[C@H](CCN)NC(=O)[C@H](CCN)NC(=O)[C@H](Cc2ccccc2)NC(=O)[C@@H](Cc2ccccc2)NC(=O)[C@H](CCN)NC(=O)[C@@H](NC(=O)[C@H](CCN)NC(=O)[C@@H](NC(=O)[C@H](CCN)NC(=O)c2ccc(-c3ccccc3)cc2)[C@@H](C)O)CCNC1=O	8 µg/mL (≈ 6.26 µM)	8 µg/mL (≈ 6.26 µM)	8 µg/mL (≈ 6.26 µM)	8 µg/mL (≈ 6.26 µM)	4 µg/mL (≈ 3.13 µM)
CCCCCCCCC(CCCCCCCC)C(=O)N[C@@H](CCN)C(=O)N[C@H](C(=O)N[C@@H](CCN)C(=O)N[C@H]1CCNC(=O)[C@H]([C@@H](C)O)NC(=O)[C@H](CCN)NC(=O)[C@H](CCN)NC(=O)[C@H](CC(C)C)NC(=O)[C@@H](CC(C)C)NC(=O)[C@H](CCN)NC1=O)[C@@H](C)O	> 16 µg/mL	> 16 µg/mL	> 16 µg/mL	> 16 µg/mL	> 16 µg/mL
CCCCCCCC(=O)N[C@@H](CCN)C(=O)N[C@H](C(=O)N[C@@H](CCN)C(=O)N[C@H]1CCNC(=O)[C@H]([C@@H](C)O)NC(=O)[C@H](CCN)NC(=O)[C@H](CCN(C)C)NC(=O)[C@H](CC(C)C)NC(=O)[C@@H](CC(C)C)NC(=O)[C@H](CCN)NC1=O)[C@@H](C)O	4 µg/mL (≈ 3.38 µM)	4 µg/mL (≈ 3.38 µM)	4 µg/mL (≈ 3.38 µM)	2 µg/mL (≈ 1.69 µM)	4 µg/mL (≈ 3.38 µM)
CCCCCCCC(=O)N[C@@H](CCN)C(=O)N[C@H](C(=O)N[C@@H](CCN)C(=O)N[C@H]1CCNC(=O)[C@H]([C@@H](C)O)NC(=O)[C@H](CCN)NC(=O)[C@H](CCN)NC(=O)[C@H](CC(C)C)NC(=O)[C@@H](CC(C)C)NC(=O)[C@H](CCN)NC1=O)[C@@H](C)O (Octanoyl-[Dab]T[Dab][Dab][Dab][dL]L[Dab][Dab]T; lactam 4-C)	4 µg/mL (≈ 3.46 µM)	8 µg/mL (≈ 6.92 µM)	16 µg/mL (≈ 13.8 µM)	4 µg/mL (≈ 3.46 µM)	8 µg/mL (≈ 6.92 µM)
C[C@@H](O)[C@@H]1NC(=O)[C@H](CCN)NC(=O)[C@H](CCN)NC(=O)[C@H](Cc2ccccc2)NC(=O)[C@@H](Cc2ccc(-c3ccccc3)cc2)NC(=O)[C@H](CCN)NC(=O)[C@@H](NC(=O)[C@H](CCN)NC(=O)[C@@H](NC(=O)[C@H](CCN)NC(=O)c2ccccc2)[C@@H](C)O)CCNC1=O	8 µg/mL (≈ 6.26 µM)	8 µg/mL (≈ 6.26 µM)	8 µg/mL (≈ 6.26 µM)	8 µg/mL (≈ 6.26 µM)	4 µg/mL (≈ 3.13 µM)
CCCCCCCCC(CCCCCC)C(=O)N[C@@H](CCN)C(=O)N[C@H](C(=O)N[C@@H](CCN)C(=O)N[C@H]1CCNC(=O)[C@H]([C@@H](C)O)NC(=O)[C@H](CCN)NC(=O)[C@H](CCN)NC(=O)[C@H](CC(C)C)NC(=O)[C@@H](CC(C)C)NC(=O)[C@H](CCN)NC1=O)[C@@H](C)O (stereo not given in full)	> 16 µg/mL	> 16 µg/mL	16 µg/mL (≈ 12.6 µM)	16 µg/mL (≈ 12.6 µM)	> 16 µg/mL
CCCCC/C=C\C/C=C\CCCCCCCC(=O)N[C@@H](CCN)C(=O)N[C@H](C(=O)N[C@@H](CCN)C(=O)N[C@H]1CCNC(=O)[C@H]([C@@H](C)O)NC(=O)[C@H](CCN)NC(=O)[C@H](CCN)NC(=O)[C@H](CC(C)C)NC(=O)[C@@H](CC(C)C)NC(=O)[C@H](CCN)NC1=O)[C@@H](C)O	> 16 µg/mL	> 16 µg/mL	> 16 µg/mL	16 µg/mL (≈ 12.4 µM)	> 16 µg/mL
C[C@@H](O)[C@@H]1NC(=O)[C@H](CCN)NC(=O)[C@H](CCN)NC(=O)[C@H](Cc2ccccc2)NC(=O)[C@@H](Cc2ccccc2)NC(=O)[C@H](CCN)NC(=O)[C@@H](NC(=O)[C@H](CCN)NC(=O)[C@@H](NC(=O)[C@H](CCN)NC(=O)c2ccccc2)[C@@H](C)O)CCNC1=O	2 µg/mL (≈ 1.66 µM)	2 µg/mL (≈ 1.66 µM)	4 µg/mL (≈ 3.33 µM)	2 µg/mL (≈ 1.66 µM)	16 µg/mL (≈ 13.3 µM)
CCCCCCCC(=O)N[C@@H](CCN(C)C)C(=O)N[C@H](C(=O)N[C@@H](CCN)C(=O)N[C@H]1CCNC(=O)[C@H]([C@@H](C)O)NC(=O)[C@H](CCN)NC(=O)[C@H](CCN)NC(=O)[C@H](CC(C)C)NC(=O)[C@@H](CC(C)C)NC(=O)[C@H](CCN)NC1=O)[C@@H](C)O	4 µg/mL (≈ 3.38 µM)	8 µg/mL (≈ 6.76 µM)	> 16 µg/mL	4 µg/mL (≈ 3.38 µM)	8 µg/mL (≈ 6.76 µM)
CCCCCCCC(=O)N[C@@H](CCN)C(=O)N[C@H](C(=O)N[C@@H](CCN(C)C)C(=O)N[C@H]1CCNC(=O)[C@H]([C@@H](C)O)NC(=O)[C@H](CCN)NC(=O)[C@H](CCN)NC(=O)[C@H](CC(C)C)NC(=O)[C@@H](CC(C)C)NC(=O)[C@H](CCN)NC1=O)[C@@H](C)O	4 µg/mL (≈ 3.38 µM)	4 µg/mL (≈ 3.38 µM)	4 µg/mL (≈ 3.38 µM)	2 µg/mL (≈ 1.69 µM)	4 µg/mL (≈ 3.38 µM)
COLISTIN	4 µg/mL	4 µg/mL	2 µg/mL	2 µg/mL	4 µg/mL
C[C@@H](O)[C@@H]1NC(=O)[C@H](CCN)NC(=O)[C@H](CCN)NC(=O)[C@H](Cc2ccc(-c3ccccc3)cc2)NC(=O)[C@@H](Cc2ccccc2)NC(=O)[C@H](CCN)NC(=O)[C@@H](NC(=O)[C@H](CCN)NC(=O)[C@@H](NC(=O)[C@H](CCN)NC(=O)c2ccc(-c3ccccc3)cc2)[C@@H](C)O)CCNC1=O ({Benzoyl(4-Ph)}-[Dab]T[Dab][Dab][Dab][dF][Bip][Dab][Dab]T; lactam 4-C)	16 µg/mL (≈ 11.8 µM)	16 µg/mL (≈ 11.8 µM)	16 µg/mL (≈ 11.8 µM)	16 µg/mL (≈ 11.8 µM)	16 µg/mL (≈ 11.8 µM)
C[C@@H](O)[C@@H]1NC(=O)[C@H](CCN)NC(=O)[C@H](CCN)NC(=O)[C@H](Cc2ccc(-c3ccccc3)cc2)NC(=O)[C@@H](Cc2ccccc2)NC(=O)[C@H](CCN)NC(=O)[C@@H](NC(=O)[C@H](CCN)NC(=O)[C@@H](NC(=O)[C@H](CCN)NC(=O)c2ccccc2)[C@@H](C)O)CCNC1=O	8 µg/mL (≈ 6.26 µM)	8 µg/mL (≈ 6.26 µM)	8 µg/mL (≈ 6.26 µM)	16 µg/mL (≈ 12.5 µM)	8 µg/mL (≈ 6.26 µM)
C[C@@H](O)[C@@H]1NC(=O)[C@H](CCN)NC(=O)[C@H](CCN)NC(=O)[C@H](Cc2ccccc2)NC(=O)[C@@H](Cc2ccccc2)NC(=O)[C@H](CCN)NC(=O)[C@@H](NC(=O)[C@H](CCN)NC(=O)[C@@H](NC(=O)[C@H](CCN)NC(=O)c2cccc(-c3ccccc3)c2)[C@@H](C)O)CCNC1=O	4 µg/mL (≈ 3.13 µM)	8 µg/mL (≈ 6.26 µM)	8 µg/mL (≈ 6.26 µM)	8 µg/mL (≈ 6.26 µM)	8 µg/mL (≈ 6.26 µM)
CCCCCCCC(=O)N[C@@H](CCN)C(=O)N[C@H](C(=O)N[C@@H](CCN)C(=O)N[C@H]1CCNC(=O)[C@H]([C@@H](C)O)NC(=O)[C@H](CCN)NC(=O)[C@H](CCN)NC(=O)[C@H](CC(C)C)NC(=O)[C@@H](CC(C)C)NC(=O)[C@H](CCN(C)C)NC1=O)[C@@H](C)O	8 µg/mL (≈ 6.76 µM)	> 16 µg/mL	> 16 µg/mL	> 16 µg/mL	> 16 µg/mL
